Assay results reported in patent EP1323432A1, “Complexes of cyclodextrins with potassium ion homeostasis regulators” (priority 2001, dated 2003).

Assays:
[1] = system: venous plasma K^+; assay: Venous plasma K^+ levels before and after treadmill exercise; format: in vivo, Wistar Kioto male rats; conditions: for K^+ values 30 minutes after the end of the administration: 0.4 mg/kg/day (complex 2 3 mg/kg/day), 6 mg/kg/day (complex 3 50 mg/kg/day); for levels of K^+ of the animals that did not respond to treatment: up to 100 minutes after the end of the effort
Procedure: (§1) Wistar Kioto male rats weighing 350 g were divided into nine groups of eight animals each (numbered 1 to 8 for each test group) and were treated with amounts of complex 1 equal to 20 µg/kg/day or 40 µg/kg/day of noncomplexed active ingredient, of complex 2 equal to 0.4 mg/kg/day of noncomplexed active ingredient and of complex 3 equal to 6 mg/kg/day of noncomplexed active ingredient, orally with an endogastric tube for 30 days, during which the animals were exercised and tested. The tested doses were the minimum ones required to restore blood K^+ levels after exercise. • Placebo group treated with physiological solution enriched with hydroxypropyl-β-cyclodextrin; • Group treated with 20 µg/kg/day of 6-[1-piperidinyl]pyrimidine-2,4-diamine-3-oxide; • Group treated with […]/day of 6-[1-piperidinyl]pyrimidine-2,4-diamine-3-oxide; • Group treated with 180 µg/kg/day of complex 1; • Group treated with 360 µg/kg/day of complex 1; • Group treated with 0.4 mg/kg/day of [±]-N-cyano-N-4-pyridinyl-N-[1,2,2-trimethylpropyl]-guanidine; • Group treated with 3 mg/kg/day of complex 2; • Group treated with 6 mg/kg/day of N-[5-sulfamoyl-1,3,4-thiadiazol-2-yl]acetamide; • Group treated with 50 mg/kg/day of complex 3.
(§2) Levels of venous plasma K^+ taken from the femoral vein before and after exercise were also measured once a week per rat in animals anesthetized with chloral hydrate at a dose of 0.5 g/kg.

[2] = Undesirable effects: hypotension (pressure measured with flow meter); parameters: species or system rats; conditions: rat, in vivo
Procedure: Pressure measurements were made by means of a T206 dual-channel flow meter by Transonic System Inc (Ithaca, NY, USA). In the control animals not subjected to stress or pharmacological treatments, pressure was 91±7 mm Hg (N=56 rats). The pressure values of the animals in our test groups prior to the beginning of pharmacological treatment were between 85 mm Hg and 105 mm Hg. The pressures were measured in the morning, at rest, prior to administration. […] The observed variations remained constant to the end of the treatment. […] The pressure values used to plot the chart refer to the values from day 21 to day 30 of treatment (Chart 4). [formula]

[3] = system: patients affected by hypokalemias; conditions: guanidine 25 mg/day or more, acetamide 100 and 500 mg/day; cited from earlier work
[4] = system: Wistar Kioto male rats; assay: Treadmill exercise: average duration of effort and recovery times after effort; format: in vivo; conditions: for average duration of the effort on the treadmill: after day 14 of treatment, oral by endogastric tube for 30 days; for average duration of the effort on the treadmill / Average recovery times after effort: versus placebo; for effort lasting (duration of the repeated effort on a treadmill) / rats able to sustain the effort on a treadmill already 30 minutes after suspending their exercise / time after which the remaining rats were able to repeat the effort: day 30; for effort lasting (duration of the repeated effort on a treadmill): effort repeated 30 minutes after end of exercise; for effort lasting (duration of the repeated effort on a treadmill) / time after which the remaining rats were able to repeat the effort: same doses as E4; for rats able to sustain the effort on a treadmill already 30 minutes after suspending their exercise: oral, complex 1 360 µg/kg/day, 0.4 mg/kg/day (complex 2 3 mg/kg/day), 6 mg/kg/day (complex 3 50 mg/kg/day); for time after which the remaining rats were able to repeat the effort: rats not able to repeat at 30 minutes; for Average recovery times after effort: day 30 of treatment
Procedure: as §1, §2
Each test group was subjected to daily trials at an initial speed of 15 m/min. In the second week, the speed was increased to 25 m/min, in the third week it was raised to 35 m/min, and in the fourth week it was increased to 45 m/min. Administration was performed in the morning.
The treadmill was equipped with a sensor which was sensitive to the weight of the rat, set to a generated weight force of 60 g/30 sec, and inserted in the rear wall of the time measurement chamber.

[5] = rat, in vivo
[6] = system: venous plasma K^+; assay: Venous plasma K^+ levels before and after treadmill exercise; format: in vivo, Wistar Kioto male rats; conditions: 5 animals per group; up to 100 minutes after the end of the effort; complex 1 180 µg/kg/day, noncomplexed 20 µg/kg/day
[7] = system: animal models; conditions: doses of 1.5-5 mg/day, noncomplexed form; cited from earlier work
[8] = animals that responded to treatment
[9] = animals that responded to treatment, same doses as E13

Row | Compound | K^+ values 30 minutes after the end of the administration [1, 8] | K^+ values after 60 minutes [1, 9] | levels of venous K^+ after 100 minutes [1, 9] | levels of K^+ of the animals that did not respond to treatment ([1]; same doses as E13) | reduction in average pressure [2] | effect on muscular weakness, paralysis attacks and symptoms [3] | average duration of the effort on the treadmill [4] | effort lasting (duration of the repeated effort on a treadmill) [4] | rats able to sustain the effort on a treadmill already 30 minutes after suspending their exercise [4] | time after which the remaining rats were able to repeat the effort [4] | Average recovery times after effort [4] | average rate increase (heart rate) [5] | K^+ levels of the animals that did not respond to the treatment [6] | values of K^+ 30 minutes after the end of the effort [1] | levels of venous K^+ after 100 minutes ([1]; after the end of the effort) | values of K^+ after 60 minutes ([1]; after the end of the effort) | effect on muscular weakness and muscular invalidity [7] | rats that responded to the treatment in terms of both functional and blood parameters ([4]; low dose: complex 1 180 µg/kg/day, noncomplexed 20 µg/kg/day)
1 | CC(=O)Nc1nnc(S(N)(=O)=O)s1 [N-[5-sulfamoyl-1,3,4-thiadiazol-2-yl]acetamide] | 6.2±2 mEq/l | 5.8±1 mEq/l | 5.6±1 mEq/l | below 3 mEq/l | 15% | useful in reducing symptoms and muscular invalidity caused by exercise | significantly longer | 7 ± 2 min | 4 rats out of 8 | 80 min | reduced significantly | 9±2% |  |  |  |  |  | 
2 | Nc1cc(N2CCCCC2)nc(N)[n+]1[O-] [6-[1-piperidinyl]pyrimidine-2,4-diamine-3-oxide] |  |  |  |  | 8% |  | significantly longer | 7.2 ± 1 min | 6 rats out of 8 | 90 min | reduced significantly | 10±2% | lower than 3 mEq/l | 5.2±2 mEq/l | 4.5±1 mEq/l | 4.2±1 mEq/l | capable of preventing muscular weakness and muscular invalidity | 3 rats out of 8
3 | [±]-N-cyano-N-4-pyridinyl-N-[1,2,2-trimethylpropyl]-guanidine | 5.2±2 mEq/l | 4.8±1 mEq/l | 4.6±1 mEq/l | below 3 mEq/l | 13% | capable of reducing muscular weakness and the frequency of paralysis attacks | significantly longer | 7.4 ± 1 min | 5 rats out of 8 | 70 min | reduced significantly | 14±2% |  |  |  |  |  | 
